# In ChEMBL document CHEMBL3797048, “Structure-activity relationship studies of new rifamycins containing l-amino acid esters as inhibitors of bacterial RNA polymerases” (Eur J Med Chem, 2016):
# Legend:
# Staphylococcus aureus [1] = assay: Antibacterial activity against methicillin resistant Staphylococcus aureus isolate 2 after 18 hrs by microdilution method; assay type: functional; conditions: isolate 2, 18 h
# Staphylococcus aureus [2] = assay: Antibacterial activity against methicillin resistant Staphylococcus aureus isolate 4 after 18 hrs by microdilution method; assay type: functional; conditions: isolate 4, 18 h
# [3] = tested on: Staphylococcus epidermidis; assay: Antibacterial activity against Staphylococcus epidermidis ATCC 49134 after 18 hrs by microdilution method; assay type: functional; conditions: ATCC 49134, 18 h
# Staphylococcus aureus [4] = assay: Antibacterial activity against methicillin resistant Staphylococcus aureus isolate 1 after 18 hrs by microdilution method; assay type: functional; conditions: isolate 1, 18 h
# Pseudomonas aeruginosa = assay: Antibacterial activity against Pseudomonas aeruginosa NCTC 6749 after 18 hrs by microdilution method; assay type: functional; conditions: NCTC 6749, 18 h
# Staphylococcus aureus [5] = assay: Antibacterial activity against methicillin resistant Staphylococcus aureus isolate 3 after 18 hrs by microdilution method; assay type: functional; conditions: isolate 3, 18 h
# Staphylococcus aureus [6] = assay: Antibacterial activity against Staphylococcus aureus ATCC 4163 after 18 hrs by microdilution method; assay type: functional; conditions: ATCC 4163, 18 h
# Staphylococcus aureus [7] = assay: Antibacterial activity against methicillin resistant Staphylococcus aureus isolate 5 after 18 hrs by microdilution method; assay type: functional; conditions: isolate 5, 18 h
# Staphylococcus aureus [8] = assay: Antibacterial activity against Staphylococcus aureus ATCC 6538 after 18 hrs by microdilution method; assay type: functional; conditions: ATCC 6538, 18 h
# Staphylococcus aureus [9] = assay: Antibacterial activity against Staphylococcus aureus ATCC 25923 after 18 hrs by microdilution method; assay type: functional; conditions: ATCC 25923, 18 h
# Escherichia coli = assay: Antibacterial activity against Escherichia coli ATCC 25922 after 18 hrs by microdilution method; assay type: functional; conditions: ATCC 25922, 18 h
# [10] = tested on: Staphylococcus epidermidis; assay: Antibacterial activity against Staphylococcus epidermidis ATCC 12228 after 18 hrs by microdilution method; assay type: functional; conditions: ATCC 12228, 18 h
# [11] = Solubility in water at pH 7 by UV-vis spectrophotometric analysis; assay type: physicochemical
# [12] = Octanol-water partition coefficient, logP of the compound after 1 hr by UV-vis spectrophotometric analysis; assay type: physicochemical
Compound,MIC (Staphylococcus aureus [1]),MIC (Staphylococcus aureus [2]),MIC [3],MIC (Staphylococcus aureus [4]),MIC (Pseudomonas aeruginosa),MIC (Staphylococcus aureus [5]),MIC (Staphylococcus aureus [6]),MIC (Staphylococcus aureus [7]),MIC (Staphylococcus aureus [8]),MIC (Staphylococcus aureus [9]),MIC (Escherichia coli),MIC [10],solubility [11],logP at 1 h [12]
CO[C@H]1/C=C/O[C@@]2(C)Oc3c(C)c(O)c4c(O)c(c(/C=N/N5CCN(C)CC5)c(O)c4c3C2=O)NC(=O)/C(C)=C\C=C\[C@H](C)[C@H](O)[C@@H](C)[C@@H](O)[C@@H](C)[C@H](OC(C)=O)[C@@H]1C [RIFAMPIN],0.016 µg/mL,0.016 µg/mL,0.008 µg/mL,0.016 µg/mL,> 2 µg/mL,0.016 µg/mL,0.008 µg/mL,0.016 µg/mL,0.008 µg/mL,0.016 µg/mL,> 2 µg/mL,0.004 µg/mL,–,–
COC(=O)[C@H](Cc1c[nH]c2ccccc12)NCc1c2c(O)c3c(O)c(C)c4c(c3c1O)C(=O)[C@@](C)(O/C=C/[C@H](OC)[C@@H](C)[C@@H](OC(C)=O)[C@H](C)[C@H](O)[C@H](C)[C@@H](O)[C@@H](C)/C=C/C=C(/C)C(=O)N2)O4,–,0.063 µg/mL,0.016 µg/mL,0.031 µg/mL,> 2 µg/mL,–,0.031 µg/mL,0.063 µg/mL,0.031 µg/mL,0.063 µg/mL,> 2 µg/mL,0.016 µg/mL,60 µg/mL,2.22
CCOC(=O)[C@H](Cc1ccc(O)cc1)NCc1c2c(O)c3c(O)c(C)c4c(c3c1O)C(=O)[C@@](C)(O/C=C/[C@H](OC)[C@@H](C)[C@@H](OC(C)=O)[C@H](C)[C@H](O)[C@H](C)[C@@H](O)[C@@H](C)/C=C/C=C(/C)C(=O)N2)O4,–,0.5 µg/mL,0.125 µg/mL,0.5 µg/mL,> 2 µg/mL,–,0.5 µg/mL,0.5 µg/mL,0.5 µg/mL,2 µg/mL,> 2 µg/mL,0.063 µg/mL,50 µg/mL,1.92
CCOC(=O)[C@H](CCCCN)NCc1c2c(O)c3c(O)c(C)c4c(c3c1O)C(=O)[C@@](C)(O/C=C/[C@H](OC)[C@@H](C)[C@@H](OC(C)=O)[C@H](C)[C@H](O)[C@H](C)[C@@H](O)[C@@H](C)/C=C/C=C(/C)C(=O)N2)O4,> 2 µg/mL,–,1 µg/mL,> 2 µg/mL,–,> 2 µg/mL,2 µg/mL,–,2 µg/mL,> 2 µg/mL,–,0.5 µg/mL,120 µg/mL,2.2
CCOC(=O)[C@H](CCCNC(=N)N)NCc1c2c(O)c3c(O)c(C)c4c(c3c1O)C(=O)[C@@](C)(O/C=C/[C@H](OC)[C@@H](C)[C@@H](OC(C)=O)[C@H](C)[C@H](O)[C@H](C)[C@@H](O)[C@@H](C)/C=C/C=C(/C)C(=O)N2)O4,2 µg/mL,–,0.5 µg/mL,2 µg/mL,–,2 µg/mL,1 µg/mL,–,1 µg/mL,> 2 µg/mL,–,0.25 µg/mL,90 µg/mL,2.22
CO[C@H]1/C=C/O[C@@]2(C)Oc3c(C)c(O)c4c(O)c(c(C=O)c(O)c4c3C2=O)NC(=O)/C(C)=C\C=C\[C@H](C)[C@H](O)[C@@H](C)[C@@H](O)[C@@H](C)[C@H](OC(C)=O)[C@@H]1C,> 2 µg/mL,> 2 µg/mL,1 µg/mL,> 2 µg/mL,> 2 µg/mL,> 2 µg/mL,2 µg/mL,> 2 µg/mL,> 2 µg/mL,> 2 µg/mL,> 2 µg/mL,1 µg/mL,–,–
CCOC(=O)[C@H](Cc1ccccc1)NCc1c2c(O)c3c(O)c(C)c4c(c3c1O)C(=O)[C@@](C)(O/C=C/[C@H](OC)[C@@H](C)[C@@H](OC(C)=O)[C@H](C)[C@H](O)[C@H](C)[C@@H](O)[C@@H](C)/C=C/C=C(/C)C(=O)N2)O4,0.125 µg/mL,0.125 µg/mL,0.125 µg/mL,0.063 µg/mL,> 2 µg/mL,0.125 µg/mL,0.063 µg/mL,0.125 µg/mL,0.063 µg/mL,0.125 µg/mL,> 2 µg/mL,0.063 µg/mL,50 µg/mL,2.63
CCOC(=O)[C@H](Cc1c[nH]c2ccccc12)NCc1c2c(O)c3c(O)c(C)c4c(c3c1O)C(=O)[C@@](C)(O/C=C/[C@H](OC)[C@@H](C)[C@@H](OC(C)=O)[C@H](C)[C@H](O)[C@H](C)[C@@H](O)[C@@H](C)/C=C/C=C(/C)C(=O)N2)O4,0.5 µg/mL,0.5 µg/mL,0.063 µg/mL,0.5 µg/mL,> 2 µg/mL,0.5 µg/mL,0.5 µg/mL,0.5 µg/mL,0.25 µg/mL,1 µg/mL,> 2 µg/mL,0.063 µg/mL,30 µg/mL,2.48
CO[C@H]1/C=C/O[C@@]2(C)Oc3c(C)c(O)c4c(O)c(c(CN[C@@H](Cc5ccccc5)C(=O)OC(C)(C)C)c(O)c4c3C2=O)NC(=O)/C(C)=C\C=C\[C@H](C)[C@H](O)[C@@H](C)[C@@H](O)[C@@H](C)[C@H](OC(C)=O)[C@@H]1C,–,0.5 µg/mL,0.25 µg/mL,0.5 µg/mL,> 2 µg/mL,–,0.5 µg/mL,0.5 µg/mL,0.5 µg/mL,1 µg/mL,> 2 µg/mL,0.125 µg/mL,30 µg/mL,2.66
CO[C@H]1/C=C/O[C@@]2(C)Oc3c(C)c(O)c4c(O)c(c(CN[C@@H](Cc5ccccc5)C(=O)OCc5ccccc5)c(O)c4c3C2=O)NC(=O)/C(C)=C\C=C\[C@H](C)[C@H](O)[C@@H](C)[C@@H](O)[C@@H](C)[C@H](OC(C)=O)[C@@H]1C,–,1 µg/mL,0.25 µg/mL,1 µg/mL,> 2 µg/mL,–,0.5 µg/mL,1 µg/mL,0.5 µg/mL,2 µg/mL,> 2 µg/mL,0.125 µg/mL,20 µg/mL,2.75
COC(=O)[C@H](Cc1ccc(O)cc1)NCc1c2c(O)c3c(O)c(C)c4c(c3c1O)C(=O)[C@@](C)(O/C=C/[C@H](OC)[C@@H](C)[C@@H](OC(C)=O)[C@H](C)[C@H](O)[C@H](C)[C@@H](O)[C@@H](C)/C=C/C=C(/C)C(=O)N2)O4,1 µg/mL,0.5 µg/mL,0.125 µg/mL,0.5 µg/mL,> 2 µg/mL,1 µg/mL,0.5 µg/mL,0.5 µg/mL,0.5 µg/mL,1 µg/mL,> 2 µg/mL,0.063 µg/mL,60 µg/mL,1.88
COC(=O)[C@H](Cc1cnc[nH]1)NCc1c2c(O)c3c(O)c(C)c4c(c3c1O)C(=O)[C@@](C)(O/C=C/[C@H](OC)[C@@H](C)[C@@H](OC(C)=O)[C@H](C)[C@H](O)[C@H](C)[C@@H](O)[C@@H](C)/C=C/C=C(/C)C(=O)N2)O4,1 µg/mL,–,0.125 µg/mL,0.5 µg/mL,–,1 µg/mL,0.25 µg/mL,–,0.25 µg/mL,1 µg/mL,–,0.25 µg/mL,150 µg/mL,1.72
COC(=O)[C@H](Cc1ccccc1)NCc1c2c(O)c3c(O)c(C)c4c(c3c1O)C(=O)[C@@](C)(O/C=C/[C@H](OC)[C@@H](C)[C@@H](OC(C)=O)[C@H](C)[C@H](O)[C@H](C)[C@@H](O)[C@@H](C)/C=C/C=C(/C)C(=O)N2)O4,–,0.063 µg/mL,0.031 µg/mL,0.125 µg/mL,> 2 µg/mL,–,0.063 µg/mL,0.063 µg/mL,0.063 µg/mL,0.125 µg/mL,> 2 µg/mL,0.031 µg/mL,70 µg/mL,2.47
CO[C@H]1/C=C/O[C@@]2(C)Oc3c(C)c(O)c4c(O)c(c(CN[C@@H](Cc5c[nH]c6ccccc56)C(=O)OCc5ccccc5)c(O)c4c3C2=O)NC(=O)/C(C)=C\C=C\[C@H](C)[C@H](O)[C@@H](C)[C@@H](O)[C@@H](C)[C@H](OC(C)=O)[C@@H]1C,–,1 µg/mL,0.25 µg/mL,1 µg/mL,> 2 µg/mL,–,1 µg/mL,1 µg/mL,1 µg/mL,2 µg/mL,> 2 µg/mL,0.25 µg/mL,< 10 µg/mL,2.72
